System: PGE-2
Assay: Anti-inflammatory effect: LPS-induced PGE-2 expression by ELISA
Assay type: cell-based, mouse
Conditions: LPS 1 μg/ml stimulated Raw 264.7 cells, 10 μM, relative to LPS group
Procedure: In this experiment, Raw 264.7 cells were stimulated by LPS, then cell culture was collected, and the expression of the inflammatory factor PGE-2 was determined by enzyme-linked immunosorbent assay (ELISA). The compositions obtained in the examples and comparative examples were compared in terms of the influence on anti-inflammatory effects. Raw264.7 cells and LPS were used for the experiment.
Raw264.7 cells at logarithmic growth phase were collected as follows: culture medium was discarded, and the cells were washed twice with PBS, added with 0.25% trypsin, and placed at 37° C. for 5 min; digestion was terminated with DMEM complete culture medium including 10% FBS and 1% PS, and a resulting solution was centrifuged at 1,000 rpm for 3 min; and a resulting supernatant was discarded, and obtained cells were resuspended in complete culture medium and counted. A cell concentration was adjusted to 5×10^5 cells/ml, and a resulting cell suspension was added to a 96-well plate at 100 µl/well. […]
After the treatment, cell culture was collected to a new 96-well plate, and the expression of PGE-2 was determined by ELISA according to instructions of a kit. A PGE-2 content (E) was calculated according to a standard curve, and relative to the LPS group, a relative inhibition rate was calculated for each sample (inhibition rate (%)=(1-Etest substance group/ELPS group)×100).

## C[C@@H]1C[C@H]2[C@@H]3CCC4=CC(=O)C=C[C@]4(C)[C@@]3(F)[C@@H](O)C[C@]2(C)[C@@]1(O)C(=O)CO [Dex, dexamethasone]
  inhibition rate of PGE-2 expression: 75.27%

Reference: patent US11458180B2, “Environmentally-friendly preparation method of composition containing anti-inflammatory active ingredients and use of composition” (SHANGHAI JAKA BIOTECH CO., LTD., priority 2019, dated 2022)
